According to the NIST ThermoML archive (doi:10.1021/je900954y):

Columns and labels:
[1] = 101 kPa, Liquid
[2] = xn = mol fraction of the nth substance listed; conditions: 101 kPa, Liquid

CCCCCCO [hexan-1-ol]
[1]
Conditions | mass density [kg/m3] | viscosity [mPa·s]
298.15 K | 815.4 | 4.643
303.15 K | 811.5 | 3.999
308.15 K | 808.3 | 3.471

CCCCCCCO [heptan-1-ol] + CC(O)CO
[2], x1 = 1
Conditions | mass density [kg/m3] | viscosity [mPa·s]
298.15 K | 818.9 | 5.914
303.15 K | 815.4 | 5.045
308.15 K | 811.9 | 4.34

CCCCCCO [hexan-1-ol] + CC(O)CO
[2], x1 = 1
Conditions | mass density [kg/m3] | viscosity [mPa·s]
298.15 K | 815.4 | 4.643
303.15 K | 811.5 | 3.999
308.15 K | 808.3 | 3.471

OCCO [1,2-ethanediol]
[1]
Conditions | mass density [kg/m3] | viscosity [mPa·s]
298.15 K | 1109.2 | 15.41
303.15 K | 1104.2 | 12.73
308.15 K | 1100.6 | 10.66

CC(O)CO (stereo not drawn) [1,2-propanediol] + CCCCCCCO
[2]
Conditions | mass density, 298.15 K [kg/m3] | mass density, 303.15 K [kg/m3] | mass density, 308.15 K [kg/m3] | viscosity, 298.15 K [mPa·s] | viscosity, 303.15 K [mPa·s] | viscosity, 308.15 K [mPa·s]
x2 = 0 | 1033.1 | 1029.9 | 1025.4 | 45.44 | 33.99 | 26.34
x2 = 0.1383 | 980.3 | 976.4 | 972 | 27.34 | 20.69 | 16.05
x2 = 0.3163 | 928.8 | 925 | 920.8 | 15.9 | 12.8 | 9.977
x2 = 0.386 | 912.5 | 908.6 | 904.6 | 13.64 | 10.88 | 8.925
x2 = 0.4049 | 908.3 | 904.4 | 900.4 | 13.19 | 10.75 | 8.567
x2 = 0.4673 | 895.4 | 891.6 | 887.6 | 11.94 | 9.431 | 7.663
x2 = 0.6097 | 869.7 | 866 | 862.2 | 9.882 | 7.655 | 6.373
x2 = 0.7341 | 851 | 847.3 | 843.7 | 8.159 | 6.401 | 5.414
x2 = 0.8294 | 838.5 | 834.9 | 831.3 | 7.132 | 5.815 | 4.963

CC(O)CO (stereo not drawn) [1,2-propanediol]
[1]
Conditions | mass density [kg/m3] | viscosity [mPa·s]
298.15 K | 1033.1 | 45.44
303.15 K | 1029.9 | 33.99
308.15 K | 1025.4 | 26.34

CCC(C)O (stereo not drawn) [butan-2-ol]
[1]
Conditions | mass density [kg/m3] | viscosity [mPa·s]
298.15 K | 802.4 | 2.999
303.15 K | 798.7 | 2.499
308.15 K | 793.8 | 2.475

OCCO [1,2-ethanediol] + CCC(C)O
[2], x2 = 0
Conditions | mass density [kg/m3] | viscosity [mPa·s]
298.15 K | 1109.2 | 15.41
303.15 K | 1104.2 | 12.73
308.15 K | 1100.6 | 10.66

CCCCCCCO [heptan-1-ol]
[1]
Conditions | mass density [kg/m3] | viscosity [mPa·s]
298.15 K | 818.9 | 5.914
303.15 K | 815.4 | 5.045
308.15 K | 811.9 | 4.34

CC(O)CO (stereo not drawn) [1,2-propanediol] + CCCCCCO
[2]
Conditions | mass density, 298.15 K [kg/m3] | mass density, 303.15 K [kg/m3] | mass density, 308.15 K [kg/m3] | viscosity, 298.15 K [mPa·s] | viscosity, 303.15 K [mPa·s] | viscosity, 308.15 K [mPa·s]
x2 = 0 | 1033.1 | 1029.9 | 1025.4 | 45.44 | 33.99 | 26.34
x2 = 0.0771 | 1004.5 | 1000.9 | 996.1 | 33.27 | 24.28 | 20.05
x2 = 0.1213 | 989.9 | 986.2 | 981.6 | 28.44 | 20.82 | 17.27
x2 = 0.2425 | 953.6 | 949.9 | 945.8 | 18.56 | 13.93 | 11.97
x2 = 0.3311 | 930.7 | 927 | 923.1 | 14.38 | 11.28 | 9.627
x2 = 0.5225 | 888.7 | 884.9 | 881.3 | 9.486 | 8.063 | 6.428
x2 = 0.5377 | 885.7 | 881.9 | 878.2 | 9.057 | 7.837 | 6.308
x2 = 0.6309 | 868.9 | 865.1 | 861.5 | 7.625 | 6.725 | 5.322
x2 = 0.7444 | 850.3 | 846.4 | 842.9 | 6.313 | 5.206 | 4.494
x2 = 0.8611 | 833.3 | 829.4 | 826 | 5.324 | 4.61 | 3.935

CCC(C)O (stereo not drawn) [butan-2-ol] + OCCO
[2]
Conditions | mass density, 298.15 K [kg/m3] | mass density, 303.15 K [kg/m3] | mass density, 308.15 K [kg/m3] | viscosity, 298.15 K [mPa·s] | viscosity, 303.15 K [mPa·s] | viscosity, 308.15 K [mPa·s]
x1 = 0.0514 | 1085.8 | 1081.8 | 1078.5 | 14.67 | 12.2 | 10.24
x1 = 0.1049 | 1062.7 | 1059.1 | 1055.6 | 13.78 | 11.58 | 9.795
x1 = 0.1847 | 1029.6 | 1025.9 | 1022.8 | 12.29 | 10.43 | 8.898
x1 = 0.261 | 1000.3 | 996.7 | 993.4 | 10.82 | 9.184 | 7.897
x1 = 0.3516 | 968.3 | 964.6 | 960.9 | 9.089 | 7.76 | 6.681
x1 = 0.4562 | 934.5 | 930.7 | 926.9 | 7.352 | 6.211 | 5.442
x1 = 0.5039 | 920.3 | 916.4 | 912.5 | 6.669 | 5.641 | 4.96
x1 = 0.6639 | 876.9 | 873.1 | 868.9 | 4.971 | 4.182 | 3.803
x1 = 0.7723 | 850.9 | 847.3 | 842.9 | 4.301 | 3.618 | 3.347
x1 = 0.8751 | 828.2 | 824.7 | 820.1 | 3.791 | 3.18 | 3.034
x1 = 1 | 802.4 | 798.7 | 793.8 | 2.999 | 2.499 | 2.475
